According to patent publication US20210009630A1, “CYCLIC DINUCLEOTIDES AS STING AGONISTS” (Janssen Biotech, Inc., priority 2017, published 2021):
Read-outs that look alike come from different tables or passages of the source.

What was measured:
[1] = target: human STING (biotinylated STING protein, residues 139-379 of Q86WV6, H232R) (Homo sapiens, UniProt Q86WV6, H232R); test: STING SPA binding assay
Procedure: The HIS tag is cleaved after purification and prior to biotinylation.
Test compounds (80 nL) were added with an acoustic dispenser (EDC Biosystems) in 100% DMSO for a final assay concentration of 1% DMSO. Plates were centrifuged for 1 min and incubated for 60 min at room temperature. […] Plates were dark adapted for 2 h and read on a ViewLux (Perkin Elmer) for 12 min per plate.

[2] = test system: human STING pathway (THP1-ISG cells); test: STING human cell reporter assay; assay type: cell-based; conditions: IRF-inducible SEAP reporter, 24 h, means of at least three values
Procedure: Agonism of the human STING pathway is assessed in THP1-ISG cells (Invivogen, cat #thp-isg) derived from human THP1 monocyte cell line by stable integration of an interferon regulatory factor (IRF)-inducible SEAP reporter construct. THP1-Blue ISG cells express a secreted embryonic alkaline phosphatase (SEAP) reporter gene under the control of an ISG54 minimal promoter in conjunction with five interferon (IFN)-stimulated response elements. As a result, THP1-Blue ISG cells allow the monitoring of IRF activation by determining the activity of SEAP. The levels of IRF-induced SEAP in the cell culture supernatant are readily assessed with alkaline phosphatase detection medium, a SEAP detection reagent. These cells are resistant to Zeocin. 2′3′cGAMP was used as a positive control in this assay. To run the assay, 60,000 cells were dispensed in 30 μL/well of a white, opaque bottom tissue culture treated 384-well plate.
Test compounds were added in a volume of 10 μL (1% DMSO final concentration). Compounds are initially prepared in 100% DMSO, spotted on an compound dilution plate and then diluted in media prior to transfer. The assay was incubated for 24 h at 37° C., 5% CO2 then plates were centrifuged at 1200 rpm (120×g) for 5 min. After final incubation, 90 μL of alkaline phosphatase detection medium-substrate was added to each well of a new 384-well clear plate and 10 μL of the cell supernatant was transferred from the assay plate to the new alkaline phosphatase detection medium-plate using a Biomek FX and mixed 4 times. Plates were incubated at RT for 20 min then absorbance at 655 nm was determined on the Tecan Safire2.

[3] = target: T1, human STING (E. coli produced truncated STING protein) (Homo sapiens, UniProt Q86WV6, H232R); test: STING SPR binding assay; conditions: steady state affinity, 1:1 binding model, 25° C.
T1 construct: contains residues 139-379 of Q86WV6 with an R at position 232 (H232R); HIS tag (N, cleaved yes); made in house; host or cells: E. coli
T1 sequence (Q86WV6 139-379 H232R): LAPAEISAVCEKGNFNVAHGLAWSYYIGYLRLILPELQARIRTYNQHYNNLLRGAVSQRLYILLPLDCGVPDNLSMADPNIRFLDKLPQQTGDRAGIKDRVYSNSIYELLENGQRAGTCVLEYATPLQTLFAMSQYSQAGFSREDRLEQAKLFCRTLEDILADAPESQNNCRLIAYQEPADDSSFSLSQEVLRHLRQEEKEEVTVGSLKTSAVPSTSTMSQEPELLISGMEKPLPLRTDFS
Procedure: Compounds were analyzed on an S200 biacore SPR instrument (GE Healthcare). E. coli produced truncated STING protein was immobilized on a series S streptavidin chip via biotin capture (GE Healthcare #BR100531) with. […] Steady state affinity and kinetic evaluations were carried out using 1:1 binding model (STING was treated as a dimer). Run parameters were as follows: 60 sec on, 300 sec off for the IFM compounds, cyclic-di-GMP (60 sec on/60 sec off), thiol isomer 1 (60 sec on/300 sec off) and cGAMP (60 sec on/1200 sec off) with a flow rate of 50 μL/min and data collection at 40 Hz at 25° C.

[4] = test system: THP1-Blue ISG cells (IFN-β secretion); test: Human interferon-β induction assay; assay type: cell-based; conditions: total cumulative IFN-β induction over the dose range tested (0.78 to 50 uM) in THP-1 cells after a 24 hour exposure
Procedure: THP1-Blue ISG cells are used to measure the secretion of IFN-β into the culture supernatant following STING pathway activation. To run the assay, anti-IFN-β capture antibodies were coated on […] well MultiArray plates (Mesoscale Discovery). After a one hour incubation, plates were washed and 50 μL supernatant from the STING human cell reporter assay plates or IFN-β standards were mixed with 20 μL Sulfotag-conjugated detection antibody in the coated plates. Plates were incubated, shaking for 2 h, washed, and read buffer was applied. Electrochemiluminescence was measured on the SectorImager.

[5] = read-out: hSTING SPA IC50, displacement of [3H]-2′3′-cGAMP from biotin-STING, means of at least three values

human STING (biotinylated STING protein, residues 139-379 of Q86WV6, H232R), sequence (Q86WV6 139-379 H232R, one chain of several): as the sequence (Q86WV6 139-379 H232R) above

IC50 [1, 5]	EC50 [2]	Kd [3]	IC50 [1]	EC50 ([2]; Homo sapiens)	Compound	human IFN-β (ranking value) [4]
73100 nM	17800 nM	5990 nM	–	–	Nc1ncnc2c1ncn2[C@@H]1O[C@@H]2COP(=O)(O)O[C@H]3[C@@H](O)[C@H](n4cnc5c(N)ncnc54)O[C@@H]3COP(=O)(O)O[C@H]2[C@H]1O [3′,3′cAMP, reference compound]	539 pg/mL
8620 nM	8700 nM	3970 nM	–	–	Nc1nc2c(ncn2[C@@H]2O[C@@H]3COP(=O)(O)O[C@H]4[C@@H](O)[C@H](n5cnc6c(=O)[nH]c(N)nc65)O[C@@H]4COP(=O)(O)O[C@H]3[C@H]2O)c(=O)[nH]1 [3′,3′cGMP, reference compound]	–
–	–	1.2 nM	11 nM	990 nM	CO[C@H]1[C@H]2OP(=O)(O)OC[C@H]3O[C@@H](n4cnc5c(N)ncnc54)[C@H](F)[C@@H]3NS(=O)(=O)OC[C@H]1O[C@H]2n1cnc2c(=O)[nH]c(N)nc21 [Compound 6]	6762 pg/mL
–	–	280 nM	2790 nM	110 nM	CO[C@H]1[C@H]2OS(=O)(=O)NC[C@]34CO[C@H](C3OP(=O)(O)OC[C@H]1O[C@H]2n1cnc2c(=O)[nH]c(N)nc21)[C@H](n1cnc2c(N)ncnc21)O4 (stereo partly drawn) [Compound 9]	8104 pg/mL
–	–	6.5 nM	15 nM	30 nM	Nc1nc2c(ncn2[C@@H]2O[C@@H]3COP(=O)(O)O[C@H]4[C@@H](F)[C@H](n5cnc6c(N)ncnc65)O[C@@H]4CNS(=O)(=O)O[C@@H]2[C@@H]3O)c(=O)[nH]1 [Compound 11]	14896 pg/mL
–	–	–	220 nM	140 nM	CO[C@H]1[C@H]2OS(=O)(=O)NC[C@H]3O[C@@H](n4cnc5c(N)ncnc54)C[C@@H]3OP(=O)(O)OC[C@H]1O[C@H]2n1cnc2c(=O)[nH]c(N)nc21 [Compound 12]	–
–	–	–	360 nM	43 nM	Nc1nc2c(nnn2[C@@H]2O[C@@H]3COP(=O)(O)O[C@H]4[C@@H](F)[C@H](n5cnc6c(N)ncnc65)O[C@@H]4CNS(=O)(=O)O[C@@H]2C3)c(=O)[nH]1 [Compound 15]	15611 pg/mL
–	–	5140 nM	21600 nM	250 nM	Nc1ncnc2c1ncn2C1O[C@@H]2CNS(=O)(=O)O[C@H]3C(n4cnc5c(N)ncnc54)O[C@H](COP(=O)(O)O[C@H]2[C@H]1F)[C@H]3O (stereo partly drawn) [Compound 17]	17298 pg/mL
–	–	–	1140 nM	110 nM	Nc1nc2c(ncn2C2O[C@@H]3COP(=O)(O)O[C@H]4C[C@H](n5cnc6c(N)ncnc65)OC4CNS(=O)(=O)O[C@@H]2[C@@H]3O)c(=O)[nH]1 (stereo partly drawn) [Compound 18]	15249 pg/mL
–	–	8.2 nM	47 nM	~220 nM	CO[C@H]1[C@H]2OP(=O)(O)OC[C@H]3O[C@@H](n4cnc5c(N)ncnc54)C[C@@H]3NS(=O)(=O)OC[C@H]1O[C@H]2n1cnc2c(=O)[nH]c(N)nc21 [Compound 20]	6045 pg/mL
–	–	–	92 nM	26 nM	CO[C@H]1[C@H]2OP(=O)(O)OC[C@H]3OC(n4cnc5c(N)ncnc54)[C@H](F)[C@@H]3OS(=O)(=O)NC[C@H]1O[C@H]2n1cnc2c(=O)[nH]c(N)nc21 (stereo partly drawn) [Compound 22]	–
–	–	–	5000 nM	11 nM	CO[C@H]1[C@H]2OP(=O)(O)OC[C@H]3OC(n4cnc5c(N)ncnc54)C[C@@H]3OS(=O)(=O)NC[C@H]1O[C@H]2n1cnc2c(=O)[nH]c(N)nc21 (stereo partly drawn) [Compound 24]	11534 pg/mL
–	–	–	28400 nM	1020 nM	Nc1nc2c(ncn2C2OC3CNS(=O)(=O)OC4C(COP(=O)(O)OC2C3)OC(n2cnc3c(N)ncnc32)C4F)c(=O)[nH]1 (stereo not drawn) [Compound 26]	–
–	–	–	190 nM	99 nM	CO[C@H]1[C@H]2OS(=O)(=O)NC[C@H]3O[C@@H](n4cnc5c(N)ncnc54)[C@@H](F)[C@@H]3O[P@](=O)(O)OC[C@H]1O[C@H]2n1cnc2c(=O)[nH]c(N)nc21 [Compound 28]	12969 pg/mL
–	–	–	> 100000 nM	13000 nM	Nc1ncnc2c1ncn2[C@@H]1O[C@@H]2CNS(=O)(=O)O[C@@H]3[C@H](O)[C@@H](COP(=O)(O)O[C@H]2[C@H]1O)O[C@H]3n1cnc2c(N)ncnc21 [Compound 30]	–
–	–	–	> 100000 nM	7080 nM	Nc1ncnc2c1ncn2[C@@H]1O[C@@H]2COP(=O)(O)O[C@@H]3[C@H](F)[C@@H](CNS(=O)(=O)O[C@H]2[C@H]1F)O[C@H]3n1cnc2c(N)ncnc21 [Compound 35]	–
–	–	–	> 100000 nM	2460 nM	Nc1ncnc2c1ncn2[C@@H]1O[C@@H]2COP(=O)(O)O[C@H]3C[C@H](n4cnc5c(N)ncnc54)O[C@@H]3CNS(=O)(=O)O[C@@H]1[C@@H]2F [Compound 36]	–
–	–	–	12400 nM	1350 nM	Nc1nc2c(nnn2[C@@H]2O[C@@H]3CNS(=O)(=O)O[C@H]4[C@@H](F)[C@H](n5cnc6c(N)ncnc65)O[C@@H]4COP(=O)(O)O[C@@H]2C3)c(=O)[nH]1 [Compound 37]	–
–	–	–	21 nM	65 nM	Nc1ncnc2c1ncn2[C@@H]1O[C@@H]2CNS(=O)(=O)O[C@@H]3[C@H](F)[C@@H](COP(=O)(O)O[C@H]2[C@H]1F)O[C@H]3n1cnc2c(=O)[nH]cnc21 [Compound 39]	–
–	–	–	66 nM	38 nM	CO[C@H]1[C@H]2OS(=O)(=O)NC[C@H]3O[C@@H](n4cnc5c(N)ncnc54)C[C@@H]3OP(=O)(O)OC[C@H]1O[C@H]2n1cnc2c(=O)[nH]cnc21 [Compound 40]	–
–	–	–	> 100000 nM	22500 nM	Nc1ncnc2c1ncn2C1O[C@@H]2COP(=O)(O)O[C@@H]3[C@H](O)C(CNS(=O)(=O)O[C@H]2[C@H]1F)O[C@H]3n1cnc2c(N)ncnc21 (stereo partly drawn) [Compound 41]	–
–	–	–	1300 nM	~39 nM	Nc1nc2c(ncn2[C@@H]2O[C@@H]3CNS(=O)(=O)OC4[C@@H](F)[C@H](n5cnc6c(N)ncnc65)O[C@@H]4COP(=O)(O)O[C@@H]2[C@@H]3O)c(=O)[nH]1 (stereo partly drawn) [Compound 47]	–
–	–	–	11 nM	–	COC1C2COP(=O)(O)OC3C(CNS(=O)(=O)OC1C(n1nnc4c(=O)[nH]c(N)nc41)O2)OC(n1cnc2c(N)ncnc21)C3F (stereo not drawn) [Compound 51]	–
–	–	–	4010 nM	–	CO[C@H]1[C@H]2OP(=O)(O)OC[C@H]3O[C@@H](n4cnc5c(=O)[nH]cnc54)[C@H](F)[C@@H]3OS(=O)(=O)NC[C@H]1O[C@H]2n1cnc2c(=O)[nH]c(N)nc21 [Compound 53]	11036 pg/mL
–	–	–	750 nM	–	CO[C@H]1[C@H]2OS(=O)(=O)NC[C@H]3O[C@@H](n4cnc5c(N)ncnc54)[C@H](F)[C@@H]3OP(=O)(O)OC[C@H]1O[C@H]2n1cc(F)c2c(=O)[nH]cnc21 [Compound 54]	18578 pg/mL
–	–	–	220 nM	–	CO[C@H]1[C@H]2OS(=O)(=O)NC[C@H]3O[C@@H](n4cnc5c(N)ncnc54)[C@H](F)[C@@H]3OP(=O)(O)OC[C@H]1O[C@H]2n1cc(F)c2c(=O)n(C)cnc21 [Compound 55]	25628 pg/mL

Compound	IC50 [1, 5]	EC50 [2]	Kd [3]	IC50 [1]	EC50 ([2]; Homo sapiens)	human IFN-β (ranking value) [4]
Nc1nc2c(ncn2[C@@H]2O[C@@H]3COP(=O)(O)O[C@H]4[C@@H](O)[C@H](n5cnc6c(N)ncnc65)O[C@@H]4COP(=O)(O)O[C@@H]2[C@@H]3O)c(=O)[nH]1 [c-GAMP, (2′,3′)cyclic guanosine monophosphate-adenosine monophosphate, reference compound]	–	530 nM	–	–	–	–
